Assay results as given in ChEMBL document CHEMBL4033610, “Analogues of the Potent Antitumor Compound Leiodermatolide from a Deep-Water Sponge of the Genus Leiodermatium” (J Nat Prod, 2017).

Test system: ASPC1
Experiment: Cytotoxicity against human Aspc-1 cells incubated for 72 hrs by MTT assay
Assay type: functional, cell-based
Settings: ASPC1, 72 h

| SMILES | IC50 [nM] |
| --- | --- |
| CC[C@@H]1OC(=O)C[C@@](O)(C/C=C/C=C(\C)[C@H]2OC(=O)CC/C=C(\C)[C@@H](C)[C@H](O)[C@H](C)[C@@H](OC(N)=O)/C=C\C=C/[C@@H]2C)[C@H]1C | 46 |
| C=C1[C@@H](C)[C@H](O)[C@H](C)[C@@H](OC(N)=O)/C=C\C=C/[C@H](C)[C@@H](/C(C)=C/C=C/C[C@]2(O)CC(=O)O[C@@H](CC)[C@@H]2C)OC(=O)CC[C@H]1OO | 3700 |
| CC[C@@H]1OC(=O)C[C@@H](C/C=C/C=C(\C)[C@H]2OC(=O)CC/C=C(\C)[C@@H](C)[C@H](O)[C@H](C)[C@@H](OC(N)=O)/C=C\C=C/[C@@H]2C)[C@H]1C | 43 |
